According to patent publication US5010089A, “CCK antagonists and their use in treating gastrointestinal disorders” (Biomeasure, Inc., priority 1989, dated 1991):

Assays:
Pancreatic CCK Receptor = biological target: T1, Pancreatic CCK Receptor (Rattus norvegicus, UniProt P30551); test: [125I]CCK8 binding assay, pancreatic membranes; design: species or system Sprague-Dawley rats; conditions: [125I]CCK8 0.05 nM, rat pancreas membranes, 90 min, 25° C.
T1 construct: the pancreas or cerebral was removed and homogenized; from tissue; host or cells: pancreas of male Sprague-Dawley rats, membrane preparation
T1 sequence (P30551 1-444): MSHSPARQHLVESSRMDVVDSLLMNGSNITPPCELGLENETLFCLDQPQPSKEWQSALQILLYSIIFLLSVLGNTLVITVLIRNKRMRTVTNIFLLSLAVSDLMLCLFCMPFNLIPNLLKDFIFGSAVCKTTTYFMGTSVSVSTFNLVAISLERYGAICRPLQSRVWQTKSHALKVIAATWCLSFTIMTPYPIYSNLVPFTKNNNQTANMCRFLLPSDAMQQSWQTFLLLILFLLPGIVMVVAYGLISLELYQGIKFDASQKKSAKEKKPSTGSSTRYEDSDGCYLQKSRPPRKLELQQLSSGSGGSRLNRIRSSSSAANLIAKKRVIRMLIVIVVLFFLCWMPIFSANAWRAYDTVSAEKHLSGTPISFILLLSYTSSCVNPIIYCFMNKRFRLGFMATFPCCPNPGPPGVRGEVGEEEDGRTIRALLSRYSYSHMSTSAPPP
Method: Inhibition studies of CCK by specific compounds of the present invention were carried out as follows. Male, Sprague-Dawley rats were sacrificed by decapitation and the pancreas or cerebral was removed and homogenized with a Brinkman Polytron (setting 6, 15 sec). The homogenates were centrifuged twice at 39,000 g for 10 min (4° C.), with an intermediate resuspension in fresh buffer. The final pellets were resuspended in the following buffer for the [^125 I]CCK8 binding assay: 10 mM HEPES, 118 mM NaCL, 4.7 mM KCl, and 5 mM MgCL2, 1 mM EGTA, 5 mg/ml bovine serum albumin, and 0.25 mg/ml bacitracin.
For the [^125 I]CCK8 binding assay, aliquots of the membrane preparations were added to plastic culture tubes containing 0.05 nM [^125 I]CCK8 (2200 Ci/mmol, New England Nulclear Corp ) and various concentrations of the test compounds in a final volume of 0.5 ml. The incubation period was 90 min (25° C.). The binding reaction was terminated by the addition of 4 ml of ice-cold buffer, followed by filtration through Whatman GF/B filters which had been previously soaked in 2% bovine serum albumin. Each tube and filter were then washed three times with 4-ml aliquots of ice-cold buffer. The radioactivity trapped on the filters was counted in an LKB Clini Gamma counter. Specific binding was defined as the total [^125 I]CCK8 bound minus that bound in the presence of 1 μM unlabeled CCK8.
Table 1 sets forth data from inhibition studies of CCK by specific compounds of the present invention in which Ar, m, and A are defined as set forth below: […]

gastric emptying = test: anti-spasmodic activity: effect on gastric emptying (charcoal meal) after CCK-8 in mice; type: in vivo, CF1 mice; conditions: for ED50: Mus musculus, anti-spasmodic activity
Method: In vivo studies were made to test the therapeutic effect of α-N-(2-indolylcarbonyl) L-tryptyl-N'-phenylethylglycine (BIM-18216),α-N-(3-quinolylcarbonyl)-L-tryptyl-N'-phenylethylglycine (BIM-18225), α-N-(2-naphthylcarbonyl)-L-tryptyl-N'-phenylethylglycine (BIM-18226), and α-N-(2-indolylcarbonyl) D-tryptyl-N'-phenylethylglycine (BIM-18227). The effect of the foregoing compounds on gastric emptying was measured as the percentage of anti-spasmodic activity. Tests were carried out on female CF1 mice as follows. Mice weighing approximately 20 g were fasted overnight. Test compounds were administered in one of four ways: intraperitoneally (i.p.), subcutaneously (s.c.), intravenously (i.v.), or orally (p.o.). Test compounds administered orally were dissolved in a mixture of 75% by volume polyethylene glycol 400 NF, 15% by volume propylene glycol USP, and 10% by volume purified H2 O USP. For other methods of administration, the test compounds were dissolved in a solution of saline containing 10% DMSO (by volume) for i.v. administration; and in a solution of saline containing 10% DMSO (by volume) and 0.25% methylcellulose (by weight) for s.c. or i.p. administration. Test compounds were administered to the mice 15 minutes prior to administering CCK-8 (40 μg/kg, s.c.). The mice were fed a charcoal meal orally 5 minutes after CCK injection and the animals were sacrificed 5 minutes later. The lengths of the intestines filled with charcoal were measured and the % of anti-spasmodic activity was calculated based upon the lengths according to the following formula: [formula]
Table 2, below, contains data on the anti-spasmodic activity of the compounds tested by oral administration.
Table 3, below, contains data for the test compound BIM-18216 administered in each of the four different ways discussed above.

[1] = Table 2, 100 mg/kg p.o., 15 min before CCK-8 (40 μg/kg, s.c.)
[2] = Table 2, 125 mg/kg p.o., 15 min before CCK-8 (40 μg/kg, s.c.)
[3] = Table 2, 125 mg/kg p.o., 15 min before CCK-8 (40 μg/kg, s.c.), 125 mg/kg

Question: Which results are given for `O=C(O)CN(CCc1ccccc1)C(=O)C(Cc1c[nH]c2ccccc12)NC(=O)c1ccc2ccccc2c1` [BIM-18226, α-N-(2-naphthylcarbonyl)-L-tryptyl-N'-phenylethylglycine]?
Answer: IC50 (Pancreatic CCK Receptor): 500 nM; % Anti-Spasmodic Activity (gastric emptying; [1]): 35%; % Anti-Spasmodic Activity (gastric emptying; [2]): 88%

Question: For `O=C(O)CN(CCc1ccccc1)C(=O)C(Cc1c[nH]c2ccccc12)NC(=O)c1ccc2ccccc2n1` [2-quinolyl, α-N-(2 quinolylcarbonyl) L-tryptyl-N'-phenylethylglycine], which IC50 (Pancreatic CCK Receptor) is on record?
Answer: The IC50 was 170 nM.

Question: For `O=C(O)CN(CCc1ccccc1)C(=O)C(Cc1c[nH]c2ccccc12)NC(=O)c1cnc2ccccc2c1` [BIM-18225, α-N-(3-quinolylcarbonyl)-L-tryptyl-N'-phenylethylglycine], which “% Anti-Spasmodic Activity” value (gastric emptying; [2]) is on record?
Answer: Its value is 22%.

Question: How did the IC50 (Pancreatic CCK Receptor) turn out when `O=C(O)CN(CCc1ccccc1)C(=O)C(Cc1c[nH]c2ccccc12)NC(=O)c1cc2ccccc2[nH]1` [BIM-18227, α-N-(2-indolylcarbonyl) D-tryptyl-N'-phenylethylglycine] was run?
Answer: Its IC50 is 30 nM.

Question: And the “% Anti-Spasmodic Activity” value (gastric emptying; [1])?
Answer: Its value is 24%.

Question: What about the “% Anti-Spasmodic Activity” value (gastric emptying; [3]) of the same compound?
Answer: The value was 60%.

Question: With `O=C(O)CN(CCc1ccccc1)C(=O)C(Cc1c[nH]c2ccccc12)NC(=O)c1cc2ccccc2[nH]1` [BIM-18216, α-N-(2-indolylcarbonyl) L-tryptyl-N'-phenylethylglycine] as the compound, how does the ED50 (gastric emptying; ip) read?
Answer: Its ED50 is 5.8 mg/kg.

Question: And the ED50 (gastric emptying; iv)?
Answer: Its ED50 is 6.6 mg/kg.

Question: And the ED50 (gastric emptying; po)?
Answer: The ED50 was 96.7 mg/kg.

Question: And the ED50 (gastric emptying; sc)?
Answer: The ED50 was 4.5 mg/kg.

Question: What about the “% Anti-Spasmodic Activity” value (gastric emptying; [3]) of the same compound?
Answer: The value was 78%.

Question: What about the “% Anti-Spasmodic Activity” value (gastric emptying; Table 3, 1 mg/kg i.p., 15 min before CCK-8) of the same compound?
Answer: The value was 1%.

Question: What about the “% Anti-Spasmodic Activity” value (gastric emptying; Table 3, 1 mg/kg s.c., 15 min before CCK-8) of the same compound?
Answer: The value was 1%.

Question: And the “% Anti-Spasmodic Activity” value (gastric emptying; Table 3, 5 mg/kg i.p., 15 min before CCK-8)?
Answer: The value was 45%.

Question: And the “% Anti-Spasmodic Activity” value (gastric emptying; Table 3, 5 mg/kg i.v., 15 min before CCK-8)?
Answer: The value was 36%.

Question: And the “% Anti-Spasmodic Activity” value (gastric emptying; Table 3, 5 mg/kg s.c., 15 min before CCK-8)?
Answer: Its value is 53%.

Question: What about the “% Anti-Spasmodic Activity” value (gastric emptying; Table 3, 10 mg/kg i.v., 15 min before CCK-8) of the same compound?
Answer: Its value is 70%.

Question: What about the “% Anti-Spasmodic Activity” value (gastric emptying; Table 3, 10 mg/kg s.c., 15 min before CCK-8) of the same compound?
Answer: Its value is 75%.

Question: What about the “% Anti-Spasmodic Activity” value (gastric emptying; Table 3, 25 mg/kg i.p., 15 min before CCK-8) of the same compound?
Answer: Its value is 91%.

Question: What about the “% Anti-Spasmodic Activity” value (gastric emptying; Table 3, 25 mg/kg i.v., 15 min before CCK-8) of the same compound?
Answer: Its value is 123%.

Question: What about the “% Anti-Spasmodic Activity” value (gastric emptying; Table 3, 25 mg/kg s.c., 15 min before CCK-8) of the same compound?
Answer: The value was 108%.

Question: And the “% Anti-Spasmodic Activity” value (gastric emptying; Table 3, 50 mg/kg p.o., 15 min before CCK-8)?
Answer: Its value is 10%.

Question: And the “% Anti-Spasmodic Activity” value (gastric emptying; Table 3, 50 mg/kg s.c., 15 min before CCK-8)?
Answer: Its value is 112%.

Question: And the “% Anti-Spasmodic Activity” value (gastric emptying; Table 3, 75 mg/kg p.o., 15 min before CCK-8)?
Answer: The value was 47%.

Question: What about the “% Anti-Spasmodic Activity” value (gastric emptying; Table 3, 100 mg/kg p.o., 15 min before CCK-8) of the same compound?
Answer: The value was 56%.

Question: What about the “% Anti-Spasmodic Activity” value (gastric emptying; Table 3, 125 mg/kg p.o., 15 min before CCK-8) of the same compound?
Answer: Its value is 81%.

Question: And the “% Anti-Spasmodic Activity” value (gastric emptying; Table 3, 250 mg/kg p.o., 15 min before CCK-8)?
Answer: Its value is 88%.

Question: What about the “% Anti-Spasmodic Activity” value (gastric emptying; Table 3, 500 mg/kg p.o., 15 min before CCK-8) of the same compound?
Answer: The value was 105%.
